# Assay results: ChEMBL document CHEMBL3881527, “Multi-functional small molecules as anti-proliferative agents” (2008)
# Assays:
# [1] = target: Vascular endothelial growth factor receptor 2 (Homo sapiens, UniProt P35968); experiment: Inhibition of N-terminal GST-His6-thrombin cleavage site-fused human VEGFR2 (Asp805 to Val1356 residues) expressed in baculovirus expression system using biotinylated gastrin precursor at Tyr87 as substrate preincubated for 5 mins followed by substrate addition measured after 30 mins by DELFIA method
# Sequence of Vascular endothelial growth factor receptor 2 (P35968 whole entry, the tested form may be a part): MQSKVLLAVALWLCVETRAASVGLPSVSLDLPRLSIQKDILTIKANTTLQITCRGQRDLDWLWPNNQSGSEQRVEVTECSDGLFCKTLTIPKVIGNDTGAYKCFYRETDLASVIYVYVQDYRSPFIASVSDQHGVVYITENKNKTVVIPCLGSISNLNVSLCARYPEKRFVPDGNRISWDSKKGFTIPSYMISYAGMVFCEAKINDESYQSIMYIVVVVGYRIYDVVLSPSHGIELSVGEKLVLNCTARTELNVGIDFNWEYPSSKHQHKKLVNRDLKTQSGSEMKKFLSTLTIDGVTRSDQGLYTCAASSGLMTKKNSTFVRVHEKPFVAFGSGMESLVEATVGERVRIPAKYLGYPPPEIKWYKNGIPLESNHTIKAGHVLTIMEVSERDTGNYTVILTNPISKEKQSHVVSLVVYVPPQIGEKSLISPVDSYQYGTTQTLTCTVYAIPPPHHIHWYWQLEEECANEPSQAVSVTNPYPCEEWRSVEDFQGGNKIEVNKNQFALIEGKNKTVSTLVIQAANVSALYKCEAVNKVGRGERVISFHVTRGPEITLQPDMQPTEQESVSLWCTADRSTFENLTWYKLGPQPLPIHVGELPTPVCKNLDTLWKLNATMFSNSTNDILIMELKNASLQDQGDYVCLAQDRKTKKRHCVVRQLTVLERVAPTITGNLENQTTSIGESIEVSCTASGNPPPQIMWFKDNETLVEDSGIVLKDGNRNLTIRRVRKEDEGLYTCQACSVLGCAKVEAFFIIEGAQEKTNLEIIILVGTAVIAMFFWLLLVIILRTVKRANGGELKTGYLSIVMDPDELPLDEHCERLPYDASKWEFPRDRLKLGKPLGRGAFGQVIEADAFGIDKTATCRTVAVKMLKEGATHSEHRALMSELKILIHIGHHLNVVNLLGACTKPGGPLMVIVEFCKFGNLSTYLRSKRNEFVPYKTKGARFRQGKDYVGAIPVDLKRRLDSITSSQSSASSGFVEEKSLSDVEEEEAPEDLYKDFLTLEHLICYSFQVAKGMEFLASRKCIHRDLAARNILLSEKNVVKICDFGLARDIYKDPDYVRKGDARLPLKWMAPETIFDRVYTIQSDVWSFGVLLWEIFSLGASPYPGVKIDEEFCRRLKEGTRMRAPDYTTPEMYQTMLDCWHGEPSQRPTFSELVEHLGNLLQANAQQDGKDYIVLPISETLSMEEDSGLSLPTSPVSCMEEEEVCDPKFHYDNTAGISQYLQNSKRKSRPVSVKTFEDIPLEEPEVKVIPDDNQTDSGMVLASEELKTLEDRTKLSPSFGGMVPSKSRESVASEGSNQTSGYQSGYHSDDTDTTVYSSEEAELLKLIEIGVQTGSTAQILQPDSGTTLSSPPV
# [2] = target: Receptor tyrosine-protein kinase erbB-2 (Homo sapiens, UniProt P04626); experiment: Inhibition of N-terminal GST-tagged human HER2 (Lys676 to Val1255 residues) expressed in baculovirus expression system using biotinylated FLT3 at Tyr589 as substrate preincubated for 5 mins followed by substrate addition measured after 30 mins by DELFIA method
# Sequence of Receptor tyrosine-protein kinase erbB-2 (P04626 whole entry, the tested form may be a part): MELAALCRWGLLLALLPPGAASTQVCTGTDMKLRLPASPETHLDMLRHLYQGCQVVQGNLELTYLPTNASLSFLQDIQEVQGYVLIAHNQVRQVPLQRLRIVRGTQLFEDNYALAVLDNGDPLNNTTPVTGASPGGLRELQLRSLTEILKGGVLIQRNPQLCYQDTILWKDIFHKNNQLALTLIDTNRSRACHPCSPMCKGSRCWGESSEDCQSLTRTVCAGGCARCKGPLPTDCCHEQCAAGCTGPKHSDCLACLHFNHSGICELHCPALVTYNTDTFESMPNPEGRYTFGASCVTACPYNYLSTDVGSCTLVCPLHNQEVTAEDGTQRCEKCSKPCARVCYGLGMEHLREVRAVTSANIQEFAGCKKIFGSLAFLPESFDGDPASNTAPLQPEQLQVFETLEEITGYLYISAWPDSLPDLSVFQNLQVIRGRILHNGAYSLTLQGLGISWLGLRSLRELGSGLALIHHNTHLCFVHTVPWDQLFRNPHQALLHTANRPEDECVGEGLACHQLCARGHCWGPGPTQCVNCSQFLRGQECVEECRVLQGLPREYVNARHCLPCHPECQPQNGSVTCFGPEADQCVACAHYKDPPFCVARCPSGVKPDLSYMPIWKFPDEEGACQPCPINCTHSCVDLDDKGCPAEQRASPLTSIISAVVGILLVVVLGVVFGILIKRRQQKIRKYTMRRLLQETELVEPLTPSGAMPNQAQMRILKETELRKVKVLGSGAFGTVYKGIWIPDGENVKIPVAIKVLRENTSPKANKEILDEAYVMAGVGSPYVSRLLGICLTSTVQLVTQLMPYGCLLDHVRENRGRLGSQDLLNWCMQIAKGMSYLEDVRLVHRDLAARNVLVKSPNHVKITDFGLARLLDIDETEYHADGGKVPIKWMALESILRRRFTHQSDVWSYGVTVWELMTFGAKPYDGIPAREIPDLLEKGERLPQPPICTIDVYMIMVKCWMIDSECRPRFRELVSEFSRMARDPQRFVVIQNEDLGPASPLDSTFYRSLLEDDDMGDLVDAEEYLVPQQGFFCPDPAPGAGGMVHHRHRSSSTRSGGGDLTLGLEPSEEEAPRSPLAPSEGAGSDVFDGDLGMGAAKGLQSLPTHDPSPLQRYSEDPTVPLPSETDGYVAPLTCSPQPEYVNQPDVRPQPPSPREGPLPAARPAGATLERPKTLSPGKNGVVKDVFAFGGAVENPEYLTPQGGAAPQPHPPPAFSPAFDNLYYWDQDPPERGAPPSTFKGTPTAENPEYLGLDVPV
# [3] = target: Epidermal growth factor receptor (Homo sapiens, UniProt P00533); experiment: Inhibition of N-terminal GST-fused human EGFR (His672 to Ala1210 residues) expressed in baculovirus expression system using biotinylated PTP1B at Tyr66 as substrate preincubated for 5 mins followed by substrate addition measured after 30 mins by DELFIA
# Sequence of Epidermal growth factor receptor (P00533 whole entry, the tested form may be a part): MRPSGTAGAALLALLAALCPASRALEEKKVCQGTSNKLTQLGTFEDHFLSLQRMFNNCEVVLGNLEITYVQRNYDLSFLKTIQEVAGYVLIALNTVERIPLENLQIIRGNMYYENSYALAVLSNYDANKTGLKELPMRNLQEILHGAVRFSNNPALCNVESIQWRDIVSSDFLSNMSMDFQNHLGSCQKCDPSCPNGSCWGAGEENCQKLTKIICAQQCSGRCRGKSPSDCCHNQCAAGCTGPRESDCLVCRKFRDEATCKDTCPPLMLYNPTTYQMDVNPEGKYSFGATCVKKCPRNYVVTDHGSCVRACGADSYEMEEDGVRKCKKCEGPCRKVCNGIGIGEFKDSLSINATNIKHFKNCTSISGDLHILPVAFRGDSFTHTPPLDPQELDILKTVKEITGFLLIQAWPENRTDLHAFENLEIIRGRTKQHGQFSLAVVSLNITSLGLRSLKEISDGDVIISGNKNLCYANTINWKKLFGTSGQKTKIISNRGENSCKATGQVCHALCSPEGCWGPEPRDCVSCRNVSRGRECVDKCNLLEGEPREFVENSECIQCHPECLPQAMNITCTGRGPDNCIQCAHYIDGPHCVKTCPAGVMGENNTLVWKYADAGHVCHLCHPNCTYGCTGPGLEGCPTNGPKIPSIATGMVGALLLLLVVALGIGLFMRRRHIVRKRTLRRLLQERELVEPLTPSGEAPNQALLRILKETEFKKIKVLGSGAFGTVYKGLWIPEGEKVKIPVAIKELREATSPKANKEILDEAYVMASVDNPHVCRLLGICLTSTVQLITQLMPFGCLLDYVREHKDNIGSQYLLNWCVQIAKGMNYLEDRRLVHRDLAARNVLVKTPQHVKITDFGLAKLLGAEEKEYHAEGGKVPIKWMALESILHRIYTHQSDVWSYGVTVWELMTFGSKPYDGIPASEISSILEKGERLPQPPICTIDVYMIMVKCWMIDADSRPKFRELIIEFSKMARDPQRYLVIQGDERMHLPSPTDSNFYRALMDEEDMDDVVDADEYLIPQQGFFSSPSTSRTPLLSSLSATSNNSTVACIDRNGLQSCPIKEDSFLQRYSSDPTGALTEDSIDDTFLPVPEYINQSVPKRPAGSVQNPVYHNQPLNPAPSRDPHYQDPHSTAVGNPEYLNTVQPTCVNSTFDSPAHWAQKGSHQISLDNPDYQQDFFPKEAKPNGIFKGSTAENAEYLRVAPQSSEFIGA
# [4] = target: Platelet-derived growth factor receptor beta (Homo sapiens, UniProt P09619); experiment: Inhibition of N-terminal GST-His6-thrombin cleavage site-fused human PDGFRbeta (Arg561 to Leu1106 residues) assessed as decrease in biotinylated FLT3 phosphorylation at Tyr589 preincubated for 5 mins followed by substrate addition measured after 30 mins by DELFIA method
# Sequence of Platelet-derived growth factor receptor beta (P09619 whole entry, the tested form may be a part): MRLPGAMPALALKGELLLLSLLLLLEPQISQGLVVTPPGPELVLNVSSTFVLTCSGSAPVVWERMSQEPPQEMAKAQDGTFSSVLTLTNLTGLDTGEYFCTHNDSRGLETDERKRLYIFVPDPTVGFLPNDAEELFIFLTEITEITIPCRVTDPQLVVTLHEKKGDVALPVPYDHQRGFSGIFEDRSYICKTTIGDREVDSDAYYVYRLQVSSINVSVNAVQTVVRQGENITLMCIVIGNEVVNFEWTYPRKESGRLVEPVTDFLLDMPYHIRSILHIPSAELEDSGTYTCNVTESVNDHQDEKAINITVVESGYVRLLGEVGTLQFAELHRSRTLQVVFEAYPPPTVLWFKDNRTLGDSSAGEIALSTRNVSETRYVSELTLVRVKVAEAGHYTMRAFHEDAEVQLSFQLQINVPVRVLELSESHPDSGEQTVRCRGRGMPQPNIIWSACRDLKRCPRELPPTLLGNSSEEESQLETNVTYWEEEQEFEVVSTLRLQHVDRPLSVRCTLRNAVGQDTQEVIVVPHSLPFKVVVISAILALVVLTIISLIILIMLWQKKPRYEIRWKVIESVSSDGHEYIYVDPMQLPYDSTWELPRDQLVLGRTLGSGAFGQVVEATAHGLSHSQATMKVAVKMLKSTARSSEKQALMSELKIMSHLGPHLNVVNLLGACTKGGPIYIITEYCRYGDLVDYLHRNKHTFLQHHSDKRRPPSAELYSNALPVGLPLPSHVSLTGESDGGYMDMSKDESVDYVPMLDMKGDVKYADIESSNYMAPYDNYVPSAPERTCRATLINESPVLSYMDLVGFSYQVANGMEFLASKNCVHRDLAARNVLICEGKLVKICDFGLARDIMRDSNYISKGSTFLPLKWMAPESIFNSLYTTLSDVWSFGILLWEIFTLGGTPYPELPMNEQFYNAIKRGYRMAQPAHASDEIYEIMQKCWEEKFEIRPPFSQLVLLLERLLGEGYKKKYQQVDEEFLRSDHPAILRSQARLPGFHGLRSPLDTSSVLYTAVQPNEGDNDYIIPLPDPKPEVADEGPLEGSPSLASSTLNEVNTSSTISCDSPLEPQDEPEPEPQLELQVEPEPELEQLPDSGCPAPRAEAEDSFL
# [5] = target: Proto-oncogene tyrosine-protein kinase Src (Homo sapiens, UniProt P12931); experiment: (§1) Inhibition of human N-terminal GST-tagged full length human Src (Met1 to Leu536 residues) expressed in baculovirus expression system assessed as decrease in biotin signal transduction protein phosphorylation at Tyr160 preincubated for 5 mins followed by substrate addition measured after 30 mins by DELFIA method
# [6] = target: Tyrosine-protein kinase ABL1 (Homo sapiens, UniProt P00519); experiment: as §1, with “GST-tagged” for “GST-tagged full length”, “Abl1 (Pro118” for “Src (Met1”, “Ser553” for “Leu536”
SMILES,IC50 [1] [nM],IC50 [2] [nM],IC50 [3] [nM],further results
C[C@@H](Nc1ncnc2[nH]c(-c3ccc(NC(=O)CCCC(=O)NO)cc3)cc12)c1ccccc1,100 to 1000,100 to 1000,≤ 100,–
C[C@@H](Nc1ncnc2[nH]c(-c3ccc(NC(=O)CCC(=O)NO)cc3)cc12)c1ccccc1,100 to 1000,100 to 1000,≤ 100,–
C[C@@H](Nc1ncnc2[nH]c(-c3ccc(C(=O)NCCNCCC(=O)NO)cc3)cc12)c1ccccc1,100 to 1000,100 to 1000,≤ 100,–
Cc1[nH]c(/C=C2\C(=O)Nc3ccc(F)cc32)c(C)c1C(=O)NCCCCCCCC(=O)NO,≤ 100,–,–,IC50 [4]: 100 to 1000 nM
C[C@@H](Nc1ncnc2c1cc(-c1ccc(C(=O)NCCNCCCCCCC(=O)NO)cc1)n2C)c1ccccc1,1000 to 10000,100 to 1000,–,–
Cc1nc(Nc2ncc(C(=O)Nc3c(C)cccc3Cl)s2)cc(N2CCN(CCCC(=O)NO)CC2)n1,–,–,–,IC50 [5]: ≤ 100 nM; IC50 [6]: ≤ 100 nM
COc1cc2ncnc(Nc3ccc(F)c(Cl)c3)c2cc1SCCCCC(=O)NO,–,≤ 100,–,–
C[C@@H](Nc1ncnc2[nH]c(-c3ccc(CN4CCN(CCCCCC(=O)NO)CC4)cc3)cc12)c1ccccc1,100 to 1000,100 to 1000,–,–
C[C@@H](Nc1ncnc2[nH]c(-c3ccc(OCCCCCCC(=O)NO)cc3)cc12)c1ccccc1,≤ 100,100 to 1000,≤ 100,–
C[C@@H](Nc1ncnc2[nH]c(-c3ccc(CN4CCN(CCCCC(=O)NO)CC4)cc3)cc12)c1ccccc1,100 to 1000,100 to 1000,≤ 100,–
C[C@@H](Nc1ncnc2[nH]c(-c3ccc(CN4CCN(CCCC(=O)NO)CC4)cc3)cc12)c1ccccc1,100 to 1000,≤ 100,≤ 100,–
C[C@@H](Nc1ncnc2[nH]c(-c3ccc(CN4CCC(NCCCCCCCC(=O)NO)CC4)cc3)cc12)c1ccccc1,–,≤ 100,–,–
C[C@@H](Nc1ncnc2[nH]c(-c3ccc(NCCCCCC(=O)NO)cc3)cc12)c1ccccc1,≤ 100,≤ 100,≤ 100,–
O=C(CCCCCCOc1ccc2ncnc(Nc3ccc(OCc4cccc(F)c4)c(Cl)c3)c2c1)NO,–,≤ 100,–,–
C[C@@H](Nc1ncnc2[nH]c(-c3ccc(NCc4ccc(C(=O)NO)cc4)cc3)cc12)c1ccccc1,1000 to 10000,100 to 1000,≤ 100,–
C[C@@H](Nc1ncnc2[nH]c(-c3ccc(CNCc4ccc(C(=O)NO)cc4)cc3)cc12)c1ccccc1,100 to 1000,100 to 1000,≤ 100,–

SMILES,IC50 [1] [nM],IC50 [2] [nM],IC50 [3] [nM],further results
Cc1[nH]c(/C=C2\C(=O)Nc3ccc(F)cc32)c(C)c1C(=O)NCCCCCC(=O)NO,≤ 100,–,–,IC50 [4]: ≤ 100 nM
COc1cc2ncnc(Nc3ccc(F)c(Cl)c3)c2cc1SCCCCCCC(=O)NO,–,≤ 100,–,–
C[C@@H](Nc1ncnc2[nH]c(-c3ccc(C(=O)NO)cc3)cc12)c1ccccc1,100 to 1000,≤ 100,≤ 100,–
O=C(CCCCCCNCc1cc(Oc2ccc(NC(=O)Nc3ccc(Cl)c(C(F)(F)F)c3)cc2)ccn1)NO,100 to 1000,–,–,–
O=C(CCCC(=O)NCc1cc(Oc2ccc(NC(=O)Nc3ccc(Cl)c(C(F)(F)F)c3)cc2)ccn1)NO,≤ 100,–,–,–
COCCOc1cc2ncnc(Nc3ccc(F)c(Cl)c3)c2cc1OCCCCCCC(=O)NO,–,100 to 1000,–,–
C[C@@H](Nc1ncnc2[nH]c(-c3ccc(CNCc4ccc(/C=C/C(=O)NO)cc4)cc3)cc12)c1ccccc1,≥ 10000,≥ 10000,≥ 10000,–
O=C(CCCCCCCNCc1cc(Oc2ccc(NC(=O)Nc3ccc(Cl)c(C(F)(F)F)c3)cc2)ccn1)NO,100 to 1000,–,–,–
COCCOc1cc2c(Nc3ccc(F)c(Cl)c3)ncnc2cc1OCCCCCCC(=O)NO,–,100 to 1000,–,–
C#Cc1cccc(Nc2ncnc3cc(OC)c(OCC(=O)NO)cc23)c1,–,≤ 100,–,–
Cc1[nH]c(/C=C2\C(=O)Nc3ccc(F)cc32)c(C)c1C(=O)NCCCCCCC(=O)NO,≤ 100,–,–,IC50 [4]: 100 to 1000 nM
Cc1[nH]c(/C=C2\C(=O)Nc3ccc(F)cc32)c(C)c1C(=O)NCCCC(=O)NO,≤ 100,–,–,IC50 [4]: ≤ 100 nM
O=C(CCCCCN1CCN(Cc2ccc(-c3cc4c(NCc5ccccc5)ncnc4[nH]3)cc2)CC1)NO,100 to 1000,100 to 1000,100 to 1000,–
COc1cc2ncnc(Nc3ccc(OCc4cccc(F)c4)c(Cl)c3)c2cc1OCCCCCCC(=O)NO,–,≤ 100,–,–
C[C@@H](Nc1ncnc2[nH]c(-c3ccc(CNCC(=O)NO)cc3)cc12)c1ccccc1,–,1000 to 10000,1000 to 10000,–
O=C(Nc1ccc(Oc2ccnc(C(=O)NO)c2)cc1)Nc1ccc(Cl)c(C(F)(F)F)c1,1000 to 10000,–,–,–
